Test results as given in ChEMBL document CHEMBL1201862, “PubChem BioAssay data set” (2004).
Active and inactive are the calls of the source.

Experiments:
Paired box protein Pax-8 = Paired box protein Pax-8 (Homo sapiens, UniProt Q06710); experiment: PAX8 transcriptional activity inhibition in RMG-I – RMG-I cells, luciferase, cherry-pick, dose response (AID 687027); format: functional, cell-based;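 note: luciferase reporter driven by Pax8 target thyroperoxidase promoter measured by SteadyGlo luminescence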
Sequence of Paired box protein Pax-8 (Q06710 whole entry): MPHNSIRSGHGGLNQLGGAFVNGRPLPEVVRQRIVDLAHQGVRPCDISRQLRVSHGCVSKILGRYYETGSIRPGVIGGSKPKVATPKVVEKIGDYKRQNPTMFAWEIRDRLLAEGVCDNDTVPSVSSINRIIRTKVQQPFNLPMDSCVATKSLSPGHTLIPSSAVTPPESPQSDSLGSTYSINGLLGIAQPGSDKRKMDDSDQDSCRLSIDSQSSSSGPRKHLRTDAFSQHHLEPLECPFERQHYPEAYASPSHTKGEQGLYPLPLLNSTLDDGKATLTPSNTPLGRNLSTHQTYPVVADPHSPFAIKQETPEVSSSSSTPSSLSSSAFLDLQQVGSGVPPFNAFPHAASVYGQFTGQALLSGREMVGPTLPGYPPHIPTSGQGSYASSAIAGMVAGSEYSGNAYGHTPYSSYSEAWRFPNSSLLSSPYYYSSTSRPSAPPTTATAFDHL

[1] = inhibitors acting on PAX2 in cells – cell-based, plate reader, dry powder samples, selectivity assay for PAX8 inhibitor project, dose response (AID 743048); format: functional;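 note: HEK293 cells carrying a WT1 promoter luciferase reporter driven by expressed Pax2; potency is for inhibition of Pax2 driven reporter signal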
[2] = COV362 cell viability loss – plate reader, dry powder, SA12, cytotoxicity control for PAX8 inhibitor project, dose response (AID 743144); format: functional, cell-based
[3] = PAX5 cellular inhibition readout – cell-based, plate reader, dry powder samples, selectivity assay for PAX8 inhibitor project, dose response (AID 743047); format: functional;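 note: HEK293 cells carrying a Pax5 driven CD19 promoter luciferase reporter; potency of inhibitors that lower reporter luminescence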
[4] = OVCAR4 cell viability loss – plate reader, dry powder, SA11, cytotoxicity control for PAX8 inhibitor project, dose response (AID 743150); format: functional, cell-based; conditions: OVCAR-4
[5] = OV-90 cell viability loss – plate reader, dry powder, SA8, PAX8 inhibitor project, dose response (AID 743149); format: functional, cell-based
[6] = PAX8-dependent cell viability loss – plate reader, dry powder, dose response (AID 743049); format: functional, cell-based
[7] = IC50 of insulin release inhibition, rat insulinoma INS-1E line, 5 mM glucose, cell-based (AID 1117331); format: functional
[8] = glucagon-like peptide-1 release potency in STC-1, concentration-response, half-maximal inhibitory concentration in the STC-1 line (AID 1117345); format: functional, cell-based
[9] = Potency on glucagon-like peptide 1 release, dose-response in NCI-H716 cell line, half maximal inhibitory concentration (AID 1117344); format: functional, cell-based
[10] = potency of ADAM10 substrate cleavage blockers – biochemical, QFRET, dose response (AID 743254);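 note: ADAM10 enzyme with the DM2 quenched FRET peptide as substrate; EDANS fluorescence gain as the protease cuts the substrate; inhibitor potency against ADAM10 proteolytic activity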
[11] = molecular target: Disintegrin and metalloproteinase domain-containing protein 17 (Homo sapiens, UniProt P78536); experiment: inhibition of ADAM17 substrate cleavage – biochemical, quenched FRET substrate, counter-screen for ADAM10 exosite inhibitor project, dose response (AID 743253)
Sequence of Disintegrin and metalloproteinase domain-containing protein 17 (P78536 whole entry, the tested form may be a part): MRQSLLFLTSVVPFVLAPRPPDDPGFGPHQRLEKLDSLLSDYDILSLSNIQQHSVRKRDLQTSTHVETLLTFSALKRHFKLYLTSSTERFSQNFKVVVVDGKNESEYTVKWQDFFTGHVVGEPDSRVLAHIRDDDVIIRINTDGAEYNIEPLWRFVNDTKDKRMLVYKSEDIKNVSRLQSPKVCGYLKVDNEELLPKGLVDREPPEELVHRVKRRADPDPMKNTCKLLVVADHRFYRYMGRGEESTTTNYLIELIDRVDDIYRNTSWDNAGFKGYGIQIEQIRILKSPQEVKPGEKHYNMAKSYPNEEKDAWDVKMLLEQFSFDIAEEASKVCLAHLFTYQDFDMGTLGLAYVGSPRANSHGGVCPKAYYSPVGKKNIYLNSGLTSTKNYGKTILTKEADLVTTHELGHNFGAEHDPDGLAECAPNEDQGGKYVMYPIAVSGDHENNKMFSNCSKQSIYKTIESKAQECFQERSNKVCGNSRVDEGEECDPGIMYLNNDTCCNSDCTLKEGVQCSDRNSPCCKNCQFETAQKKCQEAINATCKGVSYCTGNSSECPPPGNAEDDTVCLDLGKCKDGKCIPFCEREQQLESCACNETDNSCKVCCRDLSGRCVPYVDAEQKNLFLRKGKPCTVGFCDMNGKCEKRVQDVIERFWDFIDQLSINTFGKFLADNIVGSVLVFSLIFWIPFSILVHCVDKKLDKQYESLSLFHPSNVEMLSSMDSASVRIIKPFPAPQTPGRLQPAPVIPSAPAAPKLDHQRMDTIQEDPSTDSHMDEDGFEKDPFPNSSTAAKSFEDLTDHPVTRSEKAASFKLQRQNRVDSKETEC

Protein RecA = molecular target: T1, Protein RecA (Mycobacterium tuberculosis, UniProt P9WHJ3); experiment: Fluorescence Cell-Free Homogeneous Dose Retest to Identify Inhibitors of RecA-Intein Splicing Activity. [Related pubchem assays (depositor defined):AID2097, AID2223, AID489010, AID492950]; format: functional
T1 sequence (P9WHJ3 whole entry): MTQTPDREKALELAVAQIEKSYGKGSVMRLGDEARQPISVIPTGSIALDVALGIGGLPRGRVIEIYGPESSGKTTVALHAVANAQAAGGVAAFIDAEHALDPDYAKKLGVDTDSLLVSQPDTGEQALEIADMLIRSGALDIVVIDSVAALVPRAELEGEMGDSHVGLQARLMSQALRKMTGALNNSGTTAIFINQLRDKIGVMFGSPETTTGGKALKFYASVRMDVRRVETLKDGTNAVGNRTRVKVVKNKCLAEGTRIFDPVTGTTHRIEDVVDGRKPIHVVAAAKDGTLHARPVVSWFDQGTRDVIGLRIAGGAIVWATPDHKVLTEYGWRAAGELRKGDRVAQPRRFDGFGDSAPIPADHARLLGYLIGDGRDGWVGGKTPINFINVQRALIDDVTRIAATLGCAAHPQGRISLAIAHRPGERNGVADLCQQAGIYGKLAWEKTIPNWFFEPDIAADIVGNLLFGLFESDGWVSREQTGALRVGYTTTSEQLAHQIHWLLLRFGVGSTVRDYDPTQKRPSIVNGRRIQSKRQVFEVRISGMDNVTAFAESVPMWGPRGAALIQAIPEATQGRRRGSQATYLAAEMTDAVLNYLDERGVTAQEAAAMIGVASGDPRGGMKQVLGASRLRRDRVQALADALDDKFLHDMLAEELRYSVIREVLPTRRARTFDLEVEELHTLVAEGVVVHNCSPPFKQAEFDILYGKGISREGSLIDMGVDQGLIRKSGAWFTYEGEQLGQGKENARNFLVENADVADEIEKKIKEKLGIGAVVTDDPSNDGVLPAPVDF

[12] = molecular target: T2, Polyadenylate-binding protein 1 (Homo sapiens, UniProt P11940); experiment: MLLE binding blockers, Cy5 peptide tracer – biochemical, fluorescence polarization, Cy5-PAM2 peptide, secondary, miRNA deadenylation inhibitor project, dose response (AID 602260); format: functional; conditions: read-out: IC50_Mean
T2 sequence (P11940 whole entry, the tested form may be a part): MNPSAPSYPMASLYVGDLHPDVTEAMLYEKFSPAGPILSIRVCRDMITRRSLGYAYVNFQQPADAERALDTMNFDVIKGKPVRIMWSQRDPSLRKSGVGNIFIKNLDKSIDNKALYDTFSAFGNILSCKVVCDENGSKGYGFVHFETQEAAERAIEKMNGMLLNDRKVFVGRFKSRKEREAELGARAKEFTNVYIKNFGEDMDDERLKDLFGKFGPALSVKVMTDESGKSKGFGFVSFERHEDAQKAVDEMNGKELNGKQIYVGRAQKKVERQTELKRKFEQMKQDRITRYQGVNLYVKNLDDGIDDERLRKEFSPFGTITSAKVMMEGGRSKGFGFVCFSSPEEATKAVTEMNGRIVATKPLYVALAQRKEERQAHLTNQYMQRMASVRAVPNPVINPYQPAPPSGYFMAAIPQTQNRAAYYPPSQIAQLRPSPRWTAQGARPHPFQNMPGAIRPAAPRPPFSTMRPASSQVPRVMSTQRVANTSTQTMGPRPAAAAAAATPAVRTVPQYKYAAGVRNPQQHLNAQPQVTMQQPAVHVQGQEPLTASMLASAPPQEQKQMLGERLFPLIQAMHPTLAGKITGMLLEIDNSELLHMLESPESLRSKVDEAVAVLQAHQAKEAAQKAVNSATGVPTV

[13] = molecular target: T2, Polyadenylate-binding protein 1; experiment: MLLE domain peptide-binding blockers, IC50 – biochemical, fluorescence polarization, FITC-PAM2 peptide, dose response (AID 602259); format: functional; conditions: read-out: IC50_Mean
[14] = viability loss in THP-1 monocytes – THP-1 cells, cytotoxicity control for Vif-APOBEC3G degradation inhibitor project, dose response (AID 1117359); format: functional; conditions: THP-1
[15] = test system: Streptococcus sp. 'group A'; experiment: Streptococcus pyogenes SK(-)GAS viability under kanamycin – luminescence, BacTiterGlo, confirmation, counter-screen for streptokinase expression inhibitor project, dose response (AID 1900); format: functional, organism-based
Streptokinase A = molecular target: T3, Streptokinase A (Streptococcus pyogenes serotype M1, UniProt P10520); experiment: viability-normalized secreted streptokinase activity reduction – plasminogen activation absorbance, OD405, dose response (AID 1914); format: functional, Streptococcus pyogenes M1 GAS;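 note: secreted streptokinase activity via plasminogen activation per viability signal from cell pellet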
T3 sequence (P10520 whole entry): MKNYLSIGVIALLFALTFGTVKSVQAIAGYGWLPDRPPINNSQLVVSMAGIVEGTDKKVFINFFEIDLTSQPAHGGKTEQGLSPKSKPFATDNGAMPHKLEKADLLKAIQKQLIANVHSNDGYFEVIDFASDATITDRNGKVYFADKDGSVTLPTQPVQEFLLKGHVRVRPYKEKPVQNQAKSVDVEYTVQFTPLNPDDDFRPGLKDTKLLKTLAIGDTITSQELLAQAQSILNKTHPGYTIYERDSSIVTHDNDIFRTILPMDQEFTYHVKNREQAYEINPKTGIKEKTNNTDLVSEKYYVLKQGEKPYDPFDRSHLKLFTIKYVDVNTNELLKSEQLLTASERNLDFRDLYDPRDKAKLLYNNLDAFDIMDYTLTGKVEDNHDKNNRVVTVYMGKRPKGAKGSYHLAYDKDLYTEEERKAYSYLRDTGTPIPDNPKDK

Streptococcus = experiment: GAS UMAA2166 growth inhibition – luminescence, BacTiterGlo, counter-screen for streptokinase expression inhibitor project, dose response (AID 1915); format: functional, organism-based;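 note: potency for reduction of bacterial viability or growth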
[16] = Luminescence Cell-Based Dose Retest to Confirm Inhibitors of Cancer Stem Cells. [Related pubchem assays (depositor defined):AID2717, AID2721]; format: functional; conditions: Homo sapiens
[17] = reduction of Shn3 3'UTR-driven luciferase in osteoblasts – cell-based, Clone20 osteoblasts, firefly luciferase, cherry-picked, dose response (AID 624132); format: functional;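 note: firefly luciferase luminescence from reporter carrying the Shn3 3'UTR in osteoblasts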
[18] = loss of viability in HepG2 cells – cell-based, CellTiter-Glo, cherry-picked, cytotoxicity control for Shn3 inhibitor project, dose response (AID 624134); format: functional
[19] = Shn3 3'UTR reporter signal decrease – cell-based, Clone20 osteoblasts, firefly luciferase, cherry-pick, set 2, Schnurri-3 inhibitor project, dose response (AID 720490); format: functional;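 note: actives lower the luminescence signal as inhibitors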
[20] = molecular target: T4, Rac GTPase-activating protein 1 (Homo sapiens, UniProt Q9H0H5); experiment: blockers of MgcRacGAP-driven Rac1 GTP hydrolysis – biochemical, ADP Hunter fluorescence, primary and confirmatory, confirmation (AID 624330); format: functional
T4 sequence (Q9H0H5 whole entry): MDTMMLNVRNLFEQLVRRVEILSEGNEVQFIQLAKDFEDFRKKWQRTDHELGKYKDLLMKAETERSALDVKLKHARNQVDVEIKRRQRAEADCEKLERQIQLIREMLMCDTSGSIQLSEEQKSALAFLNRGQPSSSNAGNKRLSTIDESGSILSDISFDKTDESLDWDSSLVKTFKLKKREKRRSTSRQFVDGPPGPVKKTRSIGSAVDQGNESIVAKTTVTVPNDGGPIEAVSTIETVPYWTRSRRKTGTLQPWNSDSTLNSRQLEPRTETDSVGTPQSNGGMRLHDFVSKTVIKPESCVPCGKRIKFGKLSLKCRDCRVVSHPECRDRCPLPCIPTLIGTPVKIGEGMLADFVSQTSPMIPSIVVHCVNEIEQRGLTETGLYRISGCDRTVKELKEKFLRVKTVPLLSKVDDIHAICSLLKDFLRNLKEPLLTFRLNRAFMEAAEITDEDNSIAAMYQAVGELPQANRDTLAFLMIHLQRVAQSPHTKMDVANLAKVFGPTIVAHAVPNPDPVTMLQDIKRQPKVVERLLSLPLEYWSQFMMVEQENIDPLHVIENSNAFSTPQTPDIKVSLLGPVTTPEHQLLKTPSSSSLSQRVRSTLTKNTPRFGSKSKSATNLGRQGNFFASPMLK

Protein Tat = molecular target: T5, Protein Tat (Human immunodeficiency virus type 1 group M subtype B (isolate HXB2)(HIV-1), UniProt P04608); format: functional;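 note: tat binding to TAR RNA read out by fluorescence polarization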
T5 sequence (P04608 whole entry): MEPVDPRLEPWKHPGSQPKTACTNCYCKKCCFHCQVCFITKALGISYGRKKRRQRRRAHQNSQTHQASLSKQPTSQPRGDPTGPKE

[21] = Dd2 parasite growth inhibition in erythrocytes – SYBR Green, dry powder samples, set 9, dose response (AID 1159568); format: functional, cell-based
[22] = OVCAR-3 cell viability loss – plate reader, dry powder samples, PAX8 inhibitor project, dose response (AID 743044); format: functional, cell-based
[23] = IGROV1 cell killing – plate reader, dry powder samples, PAX8 inhibitor project, dose response (AID 743043); format: functional, cell-based; conditions: IGROV-1
[24] = COV434 cell viability loss – plate reader, dry powder, SA7, cytotoxicity control for PAX8 inhibitor project, dose response (AID 743145); format: functional, cell-based

SMILES: CCc1cnc(N2[C@@H](C#N)[C@@H](c3ccc(C#CC(C)C)cc3)[C@@H]2CO)s1
- AC50 (Paired box protein Pax-8): 15.4 µM (active)
- AC50 [1]: 24.7 µM (active)
- AC50 [2]: > 70 µM (inactive)
- AC50 [3]: 29.4 µM (active)
- AC50 [4]: 23.6 µM (active)
- AC50 [5]: 39.6 µM (active)
- AC50 [6]: 35.3 µM (active)

SMILES: CC(C)CCCC(C)NCCC(C)C (stereo not given) [OCTAMYLAMINE]
- IC50 [7]: > 33.3 µM (inactive)
- IC50 [8]: > 40 µM (inactive)
- IC50 [9]: > 40 µM (inactive)

SMILES: CSc1cccc(NC(=O)CCCOc2ccc(Cl)cc2C)c1
- IC50 [10]: 65.6 µM (inactive)
- IC50 [11]: > 69.5 µM (inactive)

SMILES: Cc1ccc(C(=O)N/N=C\c2cc(Br)c(Br)o2)cn1
- EC50 (Protein RecA): > 380 µM (inconclusive)
- IC50 [12]: > 66 µM (inactive)
- IC50 [13]: 46.3 µM (inactive)
- CC50 [14]: 18.2 µM (active)

SMILES: Cc1cccc(NS(=O)(=O)c2ccc(C3CCCCC3)cc2)c1
- EC50 [15]: 6.43 µM (active)
- EC50 (Streptokinase A): 5.02 µM (active)
- EC50 (Streptococcus): 6.98 µM (active)
- AC50 [16]: 5.27 µM (active)
- AC50 [17]: 5.13 µM (active)
- AC50 [18]: > 70 µM (inactive)
- AC50 [19]: 4.66 µM (active)

SMILES: CC(=C(CCOC(=O)C(C)C)SSC(CCOC(=O)C(C)C)=C(C)N(C=O)Cc1cnc(C)nc1N)N(C=O)Cc1cnc(C)nc1N [SULBUTIAMINE]
- IC50 [7]: > 33.3 µM (inactive)
- IC50 [8]: > 40 µM (inactive)
- IC50 [9]: 2.39 µM (active)

SMILES: COc1ccc(Br)cc1CNc1ccc(O)cc1
- IC50 [20]: 26.8 µM (active)
- IC50 (Protein Tat): 46.7 µM (inconclusive)
- CC50 [14]: > 40 µM (active)

SMILES: C[C@@H]1CN([C@@H](C)CO)C(=O)c2cc(C#Cc3ccccc3)cnc2O[C@H]1CN(C)C(=O)c1ccccc1
- AC50 [21]: 4.99 µM (active)

SMILES: Cn1c(CCN2CCCC2)nc2cc(NS(=O)(=O)c3ccc(Cl)cc3)ccc21
- AC50 (Paired box protein Pax-8): 6.57 µM (active)
- AC50 [1]: 72.5 µM (active)
- AC50 [2]: 20.2 µM (active)
- AC50 [22]: 18.9 µM (active)
- AC50 [3]: 52.5 µM (active)
- AC50 [23]: 26.9 µM (active)
- AC50 [4]: 16.8 µM (active)
- AC50 [24]: 46.1 µM (active)
- AC50 [5]: > 100 µM (inactive)
- AC50 [6]: 12.8 µM (active)
